The text below walks through data of patent US20220346650A1, “SYSTEMS AND METHODS FOR VASCULAR AND STRUCTURAL IMAGING” (priority 2019, published 2022).

The test system of test [1] is vascular lesion in the right middle frontal gyrus. To be noted: general comparison statement in Example 14, no own test described; cited from earlier work.
The subject of test [2] is Grade 4 Atypical Teratoid Rhabdoid Tumor (ATRT) in the posterior fossa/brain stem. Kind of test: Intraoperative NIR fluorescence imaging of tozuleristide during pediatric brain tumor resection. It is filed as in vivo, human. The conditions noted are these: Subject T613, 15 mg/m2 IV bolus about 13.5 hours prior to surgery. The procedure: This example describes use of the imaging system and/or method disclosed herein for coaxial illumination and visualization of tozuleristide fluorescence during surgical resection of a pediatric brain tumor. The imaging system of the present invention was used to image brain tissue to detect a cancer using fluorescence imaging. Surgery was performed to remove cancer from the subject.
Subject T613 was diagnosed with a Grade 4 Atypical Teratoid Rhabdoid Tumor (ATRT) in the posterior fossa/brain stem. Tozuleristide which is a peptide-fluorophore detectable agent (15 mg/m2 dose), was given by intravenous (IV) bolus injection about 13.5 hours prior to the start of surgery. The imaging head was attached to the Zeiss Pentero surgical microscope along with two eyepieces prior the start of surgery.
After the tumor was exposed, the imaging system was initialized and used continuously. The imaging system enabled the surgeon to view fluorescence and visible imaging together and simultaneously with the operating microscope. […] Moreover, there was no need to reposition the operating microscope to view the fluorescence and visible images thus providing imaging of the surgical area together with the fluorescence imaging system during the operation, which decreased disruption to the surgical workflow.
Video was captured for the duration of the tumor resection, and still images were captured of the exposed tumor. […] FIGS. 15A-15F show images taken from the tumor resection with the near-infrared (NIR) fluorescence images of the tumor using the imaging system (FIGS. 15B and 15E) and the overlay image with the NIR fluorescence overlaid with the white light or visible light spectrum illumination (FIGS. 15C and 15F). […] In the overlay image, the normal brain tissue appeared red, as it does under normal visible light or white light as shown the visible light images of the tumor (FIGS. 15A and 15D). The surgeon noted that only tumor tissue appeared fluorescent.

Test [3] relates to vascular lesion in the right middle frontal gyrus. Kind of test: Intraoperative NIR fluorescence imaging of tozuleristide during resection of a vascular lesion (arteriovenous or cavernous malformation). It is filed as in vivo, human. To be noted: for Fluorescence of surrounding tissue, normal brain tissue and normal vasculature / Fluorescence of the abnormal vascular tissue / vascular lesion: pediatric subject, 22 mg (15 mg/m^2) IV approximately 5-6 hours before surgery, NIR fluorescence; for Fluorescence of the abnormal vascular tissue / vascular lesion: in situ. The procedure:
This example describes use of the imaging system and/or methods disclosed herein for coaxial illumination and visualization of tozuleristide fluorescence during surgical resection of an arteriovenous malformation or cavernous malformation in a pediatric patient. The imaging system of the present invention was used to image brain tissue to detect abnormal vasculature using fluorescence imaging. Surgery was performed to remove the abnormality from the subject.
A pediatric subject with a history of anosmia was found on MRI to have a 3.5 cm T1-hypointense, T2/FLAIR-hyperintense mass in the right middle frontal gyrus with a central enhancing nodule, initially diagnosed pre-operatively to be a low-grade glioma. […] The patient received 22 mg (15 mg/M^2) of tozuleristide via IV injection approximately 5-6 hours before surgery and image collection. The imaging system head was attached to the Zeiss Pentero surgical microscope along with two eyepieces prior the start of surgery.
After the lesion was exposed, the imaging system was initialized and used continuously. The imaging system enabled the surgeon to view fluorescence and visible imaging together and simultaneously with the operating microscope. A microsurgical resection was performed through a right frontal craniotomy. […] The abnormal tissue was completely resected. The patient recovered without deficit. Pathology confirmed the absence of tumor.
Video was captured for the duration of the resection, and still images were captured of the exposed lesion. […] FIGS. 18 and 19 show images taken from the vascular lesion with the near-infrared (NIR) fluorescence images of the vascular lesion using the imaging system. […] In the overlay image, the normal brain tissue and normal blood vessels appeared pink or light tan to red, as it does under normal visible light or white light. The surgeon noted that only the abnormal vascular tissue appeared fluorescent.

The test system of test [4] is cerebral cavernous malformation in the left cerebellar hemisphere. As to the kind of experiment: Intraoperative NIR fluorescence imaging of tozuleristide during cavernous malformation resection. It is filed as in vivo, human. To be noted: pediatric patient; 15 mg/m2 IV on the morning of surgery. On the procedure: This example describes use of the compounds and methods disclosed herein for coaxial illumination and visualization of tozuleristide fluorescence during surgical resection of a cavernous malformation in a pediatric patient. An imaging system was used to image brain tissue to detect abnormal vasculature using fluorescence imaging. Surgery was performed to remove the abnormality from the subject.
The patient received 15 mg/m2 of a fluorescent conjugate comprising SEQ ID NO: 1 conjugated to an ICG (tozuleristide, also referred to herein as Compound 76) via IV injection on the morning of surgery and image collection. The imaging system head was attached to the Zeiss Pentero surgical microscope along with two eyepieces prior the start of surgery.
After the lesion was exposed, the imaging system was initialized and used continuously. The imaging system enabled the surgeon to view fluorescence and visible imaging together and simultaneously with the operating microscope. A microsurgical resection was performed through a left retroaricular craniotomy with frameless stereotactic navigation and intraoperative ultrasonography. A round mulberry appearing vascular lesion that contained areas of thrombosed vessels and firm calcifications was encountered. […] The lesion was removed. […]

For `CC1(C)C(/C=C/C=C/C=C/C=C2\N(CCCCS(=O)(=O)O)c3ccc4ccccc4c3C2(C)C)=[N+](CCCCS(=O)(=O)[O-])c2ccc3ccccc3c21` [ICG, indocyanine green], in test [1], the “Behaviour of ICG alone after injection (comparison statement)” value was “transiently lights up blood vessels immediately after injection”.

With tozuleristide, in test [2], the “Surgeon-noted distinction between tumor and normal tissue with NIR fluorescence” value is “very good distinction between tumor and normal tissue fluorescence”. The “Background fluorescence in non-tumor or normal brain tissue” value in test [2] (NIR fluorescence image) is “no discernable background fluorescence”. In test [2] (NIR fluorescence, in situ), the “Tozuleristide fluorescence in the exposed tumor” value was “observed in situ in the exposed tumor”. The “Time after injection during which diseased tissue can be highlighted” value in test [3] (general statement in Example 14, fluorescence dependent on pathological tissue binding and uptake) was “up to 30 hours”. In addition, in test [3], the “Fluorescence of surrounding tissue, normal brain tissue and normal vasculature” value (from here on “Fluorescence of surrounding tissue”) was “non-fluorescent”; the “Fluorescence of the abnormal vascular tissue / vascular lesion” value is given as “indicative of the presence of tozuleristide in the vascular lesion”. In addition, in test [3] (listed as Tozuleristide), the “Fluorescence of the abnormal vascular tissue / vascular lesion” value is on record as “observed in situ in the exposed vascular lesion”; the “Fluorescence of surrounding tissue” value is on record as “no discernable background fluorescence”. In test [3] (listed as toluzeristide), the “Fluorescence of the abnormal vascular tissue / vascular lesion” value was “fluoresced avidly”; the “Fluorescence of surrounding tissue” value is “no fluorescence”. For the same molecule, in test [4], the “Fluorescence of the cavernous malformation lesion” value is listed as “fluoresced avidly” and the “Fluorescence of the surrounding cerebellum” value is given as “did not fluoresce”.
